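Method: 48-hour compound exposure of cells in 96-well plates, five concentrations, linear interpolation of endpoints. The concentration for 50% growth inhibition is given as GI50.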 The source made the active and inactive calls. Rule as the data show it: active = GI50 up to about 1.1 µM and inactive = higher.
How the values were obtained:
Test in all cases: inhibition of tumour cell growth, NCI panel, 48 h
MDA-MB-231 = test system: MDA-MB-231
U-251 = test system: U-251
NCI/ADR-RES = test system: NCI/ADR-RES
SK-MEL-2 = test system: SK-MEL-2
HOP-92 = test system: HOP-92
OVCAR-3 = test system: OVCAR-3
SNB-19 = test system: SNB-19
SW-620 = test system: SW-620
ACHN = test system: ACHN
NCI-H226 = test system: NCI-H226
HT-29 = test system: HT-29
UO-31 = test system: UO-31
CCRF-CEM = test system: CCRF-CEM
KM12 = test system: KM12
UACC-62 = test system: UACC-62
TK-10 = test system: TK-10
SNB-75 = test system: SNB-75
LOX IMVI = test system: LOX IMVI
HCC 2998 = test system: HCC 2998
SF-268 = test system: SF-268
T47D = test system: T47D
MOLT-4 = test system: MOLT-4
Hs-578T = test system: Hs-578T
786-0 = test system: 786-0
SK-MEL-28 = test system: SK-MEL-28
SK-OV-3 = test system: SK-OV-3
K562 = test system: K562
M14 = test system: M14
A498 = test system: A498
SF-295 = test system: SF-295
NCI-H23 = test system: NCI-H23
BT-549 = test system: BT-549
IGROV-1 = test system: IGROV-1
MDA-MB-435 = test system: MDA-MB-435
Malme-3M = test system: Malme-3M
PC-3 = test system: PC-3
CAKI-1 = test system: CAKI-1
MDA-N = test system: MDA-N
NCI-H460 = test system: NCI-H460
HCT-15 = test system: HCT-15
A549 = test system: A549
RXF 393 = test system: RXF 393
COLO 205 = test system: COLO 205
OVCAR-8 = test system: OVCAR-8
SK-MEL-5 = test system: SK-MEL-5
HL-60 = test system: HL-60
HCT-116 = test system: HCT-116
SN12C = test system: SN12C
EKVX = test system: EKVX
MCF7 = test system: MCF7
DU-145 = test system: DU-145
UACC-257 = test system: UACC-257
SF-539 = test system: SF-539
OVCAR-5 = test system: OVCAR-5
OVCAR-4 = test system: OVCAR-4
NCI-H522 = test system: NCI-H522
HOP-62 = test system: HOP-62
RPMI-8226 = test system: RPMI-8226

## Cn1c(COC(=O)Nc2ccccc2)c(COC(=O)Nc2ccccc2)c2ccc3cc(Cl)c(Cl)cc3c21
MDA-MB-231
  GI50: 3.33 µM (inactive)
U-251
  GI50: 1.95 µM (inactive)
NCI/ADR-RES
  GI50: 16.4 µM (inactive)
SK-MEL-2
  GI50: 4.31 µM (inactive)
HOP-92
  GI50: 2.1 µM (inactive)
OVCAR-3
  GI50: 11 µM (inactive)
SNB-19
  GI50: 4.24 µM (inactive)
SW-620
  GI50: 2.69 µM (inactive)
ACHN
  GI50: 8.79 µM (inactive)
NCI-H226
  GI50: 13.4 µM (inactive)
HT-29
  GI50: 8.02 µM (inactive)
UO-31
  GI50: 10.4 µM (inactive)
CCRF-CEM
  GI50: 1.51 µM (inactive)
KM12
  GI50: 10.2 µM (inactive)
UACC-62
  GI50: 6.24 µM (inactive)
TK-10
  GI50: 9.4 µM (inactive)
SNB-75
  GI50: 8.53 µM (inactive)
LOX IMVI
  GI50: 2.52 µM (inactive)
HCC 2998
  GI50: 5.5 µM (inactive)
SF-268
  GI50: 3.57 µM (inactive)
T47D
  GI50: 1.53 µM (inactive)
MOLT-4
  GI50: 1.1 µM (active)
Hs-578T
  GI50: 5.73 µM (inactive)
786-0
  GI50: 2.76 µM (inactive)
SK-MEL-28
  GI50: 3.61 µM (inactive)
SK-OV-3
  GI50: 20.9 µM (inactive)
K562
  GI50: 1.07 µM (active)
M14
  GI50: 7.71 µM (inactive)
A498
  GI50: 1.65 µM (inactive)
SF-295
  GI50: 18.7 µM (inactive)
NCI-H23
  GI50: 2.63 µM (inactive)
BT-549
  GI50: 2.58 µM (inactive)
IGROV-1
  GI50: 8.95 µM (inactive)
MDA-MB-435
  GI50: 7.87 µM (inactive)
Malme-3M
  GI50: 1.74 µM (inactive)
PC-3
  GI50: 8.05 µM (inactive)
CAKI-1
  GI50: 1.06 µM (active)
MDA-N
  GI50: 8.07 µM (inactive)
NCI-H460
  GI50: 8.2 µM (inactive)
HCT-15
  GI50: 4.4 µM
A549
  GI50: 23.3 µM (inactive)
RXF 393
  GI50: 9.64 µM (inactive)
COLO 205
  GI50: 3.39 µM (inactive)
OVCAR-8
  GI50: 6.73 µM (inactive)
SK-MEL-5
  GI50: 4.62 µM (inactive)
HL-60
  GI50: 2.46 µM (inactive)
HCT-116
  GI50: 9.66 µM (inactive)
SN12C
  GI50: 4.07 µM (inactive)
EKVX
  GI50: 15.9 µM (inactive)
MCF7
  GI50: 2.14 µM (inactive)
DU-145
  GI50: 11.3 µM (inactive)
UACC-257
  GI50: 8.39 µM (inactive)
SF-539
  GI50: 10.8 µM (inactive)
OVCAR-5
  GI50: 10.7 µM (inactive)

## CCOC(=O)CNC(=O)C(CCC(=O)N(C)O)NC(=O)CCC(N)C(=O)O (stereo unspecified)
MDA-MB-231
  GI50: > 100 µM (inactive)
U-251
  GI50: > 100 µM (inactive)
NCI/ADR-RES
  GI50: > 100 µM (inactive)
SK-MEL-2
  GI50: > 100 µM (inactive)
HOP-92
  GI50: > 100 µM (inactive)
OVCAR-3
  GI50: > 100 µM (inactive)
SNB-19
  GI50: > 100 µM (inactive)
SW-620
  GI50: > 100 µM (inactive)
ACHN
  GI50: > 100 µM (inactive)
NCI-H226
  GI50: > 100 µM (inactive)
OVCAR-4
  GI50: > 100 µM (inactive)
NCI-H522
  GI50: > 100 µM (inactive)
HT-29
  GI50: > 100 µM (inactive)
UO-31
  GI50: > 100 µM (inactive)
CCRF-CEM
  GI50: > 100 µM (inactive)
KM12
  GI50: > 100 µM (inactive)
UACC-62
  GI50: > 100 µM (inactive)
TK-10
  GI50: > 100 µM (inactive)
SNB-75
  GI50: > 100 µM (inactive)
LOX IMVI
  GI50: > 100 µM (inactive)
HCC 2998
  GI50: > 100 µM (inactive)
SF-268
  GI50: > 100 µM (inactive)
T47D
  GI50: > 100 µM (inactive)
MOLT-4
  GI50: > 100 µM (inactive)
Hs-578T
  GI50: > 100 µM (inactive)
786-0
  GI50: > 100 µM (inactive)
SK-MEL-28
  GI50: > 100 µM (inactive)
SK-OV-3
  GI50: > 100 µM (inactive)
HOP-62
  GI50: > 100 µM (inactive)
K562
  GI50: > 100 µM (inactive)
M14
  GI50: > 100 µM (inactive)
A498
  GI50: > 100 µM (inactive)
SF-295
  GI50: > 100 µM (inactive)
NCI-H23
  GI50: > 100 µM (inactive)
BT-549
  GI50: > 100 µM (inactive)
IGROV-1
  GI50: > 100 µM (inactive)
MDA-MB-435
  GI50: > 100 µM (inactive)
PC-3
  GI50: > 100 µM (inactive)
CAKI-1
  GI50: > 100 µM (inactive)
MDA-N
  GI50: > 100 µM (inactive)
NCI-H460
  GI50: > 100 µM (inactive)
HCT-15
  GI50: > 100 µM
A549
  GI50: > 100 µM (inactive)
RXF 393
  GI50: > 100 µM (inactive)
COLO 205
  GI50: > 100 µM (inactive)
OVCAR-8
  GI50: > 100 µM (inactive)
SK-MEL-5
  GI50: > 100 µM (inactive)
HL-60
  GI50: > 100 µM (inactive)
HCT-116
  GI50: > 100 µM (inactive)
SN12C
  GI50: > 100 µM (inactive)
EKVX
  GI50: > 100 µM (inactive)
MCF7
  GI50: > 100 µM (inactive)
DU-145
  GI50: > 100 µM (inactive)
UACC-257
  GI50: > 100 µM (inactive)
SF-539
  GI50: > 100 µM (inactive)
OVCAR-5
  GI50: > 100 µM (inactive)
RPMI-8226
  GI50: > 100 µM (inactive)
